Experimental data: ChEMBL document CHEMBL1201862, “PubChem BioAssay data set” (2004)
Active and inactive are the calls of the source.

Experiments:
INS1 [1] = assay: beta-cell survival under cytokine stress – INS-1E, ATP luminescence, dry powder, dose response (AID 488844); type: functional, cell-based; settings: Rattus norvegicus
[2] = suppression of NO production in INS-1E cells – cell-based, Griess absorbance, dry powder, set 3, dose response (AID 488870); type: functional; settings: Rattus norvegicus
INS1 [3] = assay: suppression of NO production in INS-1E cells – cell-based, Griess absorbance, dry powder, set 2, dose response (AID 488868); type: functional; settings: Rattus norvegicus
Caspase-3 = target: T1, Caspase-3 (Homo sapiens, UniProt P42574); assay: inhibition of recombinant caspase-3 activity – biochemical, luminescence, set 2, selectivity assay for SENP protease inhibitor project, SAR follow-up (AID 588599); type: functional
T1 sequence (P42574 whole entry): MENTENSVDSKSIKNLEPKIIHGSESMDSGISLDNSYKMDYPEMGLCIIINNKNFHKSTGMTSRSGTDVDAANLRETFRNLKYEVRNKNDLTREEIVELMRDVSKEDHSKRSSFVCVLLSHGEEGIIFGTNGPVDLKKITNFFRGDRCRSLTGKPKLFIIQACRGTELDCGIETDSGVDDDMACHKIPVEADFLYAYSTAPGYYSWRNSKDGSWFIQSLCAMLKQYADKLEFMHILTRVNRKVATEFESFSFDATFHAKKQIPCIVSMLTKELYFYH

[4] = target: T2, Sentrin-specific protease 8 (Homo sapiens, UniProt Q96LD8); assay: inhibition of sentrin protease 8 – biochemical, luminescence, set 2, SAR follow-up (AID 588601); type: functional
T2 sequence (Q96LD8 whole entry): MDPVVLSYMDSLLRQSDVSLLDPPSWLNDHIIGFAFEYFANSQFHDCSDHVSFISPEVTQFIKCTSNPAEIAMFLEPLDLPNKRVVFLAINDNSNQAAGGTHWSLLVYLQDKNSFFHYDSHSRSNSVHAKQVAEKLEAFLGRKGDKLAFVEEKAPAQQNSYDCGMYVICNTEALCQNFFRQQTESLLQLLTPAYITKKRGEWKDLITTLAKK

[5] = target: T3, Sentrin-specific protease 7 (Homo sapiens, UniProt Q9BQF6); assay: inhibition of human SENP7 cleavage activity – biochemical, luminescence, set 2, SAR follow-up (AID 588600); type: functional
T3 sequence (Q9BQF6 whole entry): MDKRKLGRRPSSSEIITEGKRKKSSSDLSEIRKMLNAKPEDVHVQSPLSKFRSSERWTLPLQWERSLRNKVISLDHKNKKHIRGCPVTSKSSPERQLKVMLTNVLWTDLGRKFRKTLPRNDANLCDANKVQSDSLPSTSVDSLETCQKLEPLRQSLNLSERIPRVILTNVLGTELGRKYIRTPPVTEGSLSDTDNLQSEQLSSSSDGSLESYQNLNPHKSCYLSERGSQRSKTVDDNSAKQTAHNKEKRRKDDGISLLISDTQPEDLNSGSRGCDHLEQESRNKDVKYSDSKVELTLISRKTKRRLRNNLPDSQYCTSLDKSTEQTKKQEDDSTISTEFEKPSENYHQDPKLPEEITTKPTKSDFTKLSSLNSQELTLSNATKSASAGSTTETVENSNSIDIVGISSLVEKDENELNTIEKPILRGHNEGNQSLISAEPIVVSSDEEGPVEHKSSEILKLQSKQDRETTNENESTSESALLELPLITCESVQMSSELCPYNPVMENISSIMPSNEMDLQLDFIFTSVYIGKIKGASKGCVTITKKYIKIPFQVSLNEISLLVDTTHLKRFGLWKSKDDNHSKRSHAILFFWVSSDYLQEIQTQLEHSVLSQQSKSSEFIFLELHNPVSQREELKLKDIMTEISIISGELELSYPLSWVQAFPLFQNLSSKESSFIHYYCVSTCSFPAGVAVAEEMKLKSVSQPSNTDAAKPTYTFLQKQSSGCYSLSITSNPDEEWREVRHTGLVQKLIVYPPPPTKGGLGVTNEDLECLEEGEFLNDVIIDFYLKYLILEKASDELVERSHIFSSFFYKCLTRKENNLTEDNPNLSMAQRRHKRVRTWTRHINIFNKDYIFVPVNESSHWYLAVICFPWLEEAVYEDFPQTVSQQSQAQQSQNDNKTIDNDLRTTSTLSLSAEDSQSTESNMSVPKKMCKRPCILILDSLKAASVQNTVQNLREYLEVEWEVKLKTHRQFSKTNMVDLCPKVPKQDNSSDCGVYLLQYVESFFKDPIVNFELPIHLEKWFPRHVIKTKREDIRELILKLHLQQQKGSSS

[6] = target: T4, Sentrin-specific protease 6 (Homo sapiens, UniProt Q9GZR1); assay: inhibition of human SENP6 catalytic domain – biochemical, luminescence, set 2, SAR follow-up (AID 588598); type: functional
T4 sequence (Q9GZR1 whole entry): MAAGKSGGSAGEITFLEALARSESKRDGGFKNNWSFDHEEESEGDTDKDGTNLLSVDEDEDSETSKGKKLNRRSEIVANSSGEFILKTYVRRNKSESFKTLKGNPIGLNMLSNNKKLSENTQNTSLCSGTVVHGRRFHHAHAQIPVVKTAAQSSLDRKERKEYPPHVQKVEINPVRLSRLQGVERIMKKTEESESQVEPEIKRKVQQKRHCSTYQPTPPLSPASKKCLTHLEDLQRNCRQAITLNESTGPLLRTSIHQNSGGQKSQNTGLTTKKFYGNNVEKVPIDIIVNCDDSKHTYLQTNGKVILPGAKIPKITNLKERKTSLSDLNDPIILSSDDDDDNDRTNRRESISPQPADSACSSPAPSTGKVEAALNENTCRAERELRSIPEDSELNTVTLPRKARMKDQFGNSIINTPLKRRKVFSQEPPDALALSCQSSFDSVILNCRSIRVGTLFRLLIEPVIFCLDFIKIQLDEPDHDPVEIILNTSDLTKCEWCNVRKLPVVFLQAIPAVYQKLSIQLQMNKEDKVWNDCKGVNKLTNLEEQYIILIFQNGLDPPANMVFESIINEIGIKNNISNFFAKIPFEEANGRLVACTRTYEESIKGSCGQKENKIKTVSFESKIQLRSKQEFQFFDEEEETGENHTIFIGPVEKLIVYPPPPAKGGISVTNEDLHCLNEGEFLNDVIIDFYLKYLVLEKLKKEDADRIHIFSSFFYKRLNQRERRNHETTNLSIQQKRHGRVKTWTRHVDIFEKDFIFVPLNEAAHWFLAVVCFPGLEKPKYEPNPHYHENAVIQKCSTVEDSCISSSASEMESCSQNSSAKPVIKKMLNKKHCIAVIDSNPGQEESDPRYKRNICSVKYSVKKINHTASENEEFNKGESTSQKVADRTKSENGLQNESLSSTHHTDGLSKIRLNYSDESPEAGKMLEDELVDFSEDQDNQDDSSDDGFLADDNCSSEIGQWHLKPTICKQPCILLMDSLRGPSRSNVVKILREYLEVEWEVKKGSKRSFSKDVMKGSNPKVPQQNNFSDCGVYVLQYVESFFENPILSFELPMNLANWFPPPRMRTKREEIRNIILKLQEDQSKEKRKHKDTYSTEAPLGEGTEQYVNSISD

[7] = Vero cell cytotoxicity, dose response, cytotoxicity control for M. tuberculosis growth inhibitor project, Vero cells, purified and synthesized compounds, set 4 (AID 504854); type: functional; settings: Mycobacterium tuberculosis
[8] = test system: Streptococcus sp. 'group A'; assay: Streptococcus pyogenes SK(-)GAS viability under kanamycin – luminescence, BacTiterGlo, confirmation, counter-screen for streptokinase expression inhibitor project, dose response (AID 1900); type: functional, organism-based
Streptococcus = assay: GAS UMAA2166 growth inhibition – luminescence, BacTiterGlo, counter-screen for streptokinase expression inhibitor project, dose response (AID 1915); type: functional, organism-based;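 also: potency for reduction of bacterial viability or growth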
CHO-K1 = assay: (§1) Counterscreen for antagonists of the orexin 1 receptor (OX1R; HCRTR1): Homogeneous time resolved fluorescence (HTRF)-based cell-based dose response assay to identify antagonists of the parental CHO-K1 cell line. [Related pubchem assays (depositor defined):AID434989, AID435008, AID463079, AID485270, AID492963, AID492964, AID492965, AID493232, AID504699, AID504701]; type: functional; settings: Cricetulus griseus
[9] = as §1, with “Fluorescence-based” for “Homogeneous time resolved fluorescence (HTRF)-based”, “cell-based high throughput” for “cell-based”, “CHO” for “CHO-K1”; type: functional
[10] = target: T5, Orexin/Hypocretin receptor type 1 (Homo sapiens, UniProt O43613); assay: Homogeneous Time Resolved Fluorescence (HTRF)-based cell-based high throughput dose response assay for antagonists of the orexin 1 receptor (OX1R; HCRTR1). [Related pubchem assays (depositor defined):AID434989, AID435008, AID463079, AID485270, AID492963, AID492964, AID492965, AID493232, AID504717, AID504718]; type: functional
[11] = target: T5, Orexin/Hypocretin receptor type 1; assay: Fluorescence-based cell-based high throughput dose response assay for antagonists of the orexin 1 receptor (OX1R; HCRTR1). [Related pubchem assays (depositor defined):AID434989, AID435008, AID463079, AID485270, AID492963, AID492964, AID492965, AID493232, AID504717, AID504718]; type: functional
Orexin receptor type 2 [12] = target: T6, Orexin receptor type 2 (Homo sapiens, UniProt O43614); assay: Counterscreen assay for antagonists of the orexin 1 receptor (OX1R; HCRTR1): Fluorescence-based cell-based dose response assay for antagonists of the orexin 2 receptor (OX2R; HCRTR2), run by assay provider.; type: functional
Orexin receptor type 2 [13] = target: T6, Orexin receptor type 2; assay: Counterscreen assay for antagonists of the orexin 1 receptor (OX1R; HCRTR1): Homogeneous Time Resolved Fluorescence (HTRF)-based cell-based dose response assay for antagonists of the orexin 2 receptor (OX2R; HCRTR2), run by assay provider.; type: functional

T5 sequence (O43613 whole entry): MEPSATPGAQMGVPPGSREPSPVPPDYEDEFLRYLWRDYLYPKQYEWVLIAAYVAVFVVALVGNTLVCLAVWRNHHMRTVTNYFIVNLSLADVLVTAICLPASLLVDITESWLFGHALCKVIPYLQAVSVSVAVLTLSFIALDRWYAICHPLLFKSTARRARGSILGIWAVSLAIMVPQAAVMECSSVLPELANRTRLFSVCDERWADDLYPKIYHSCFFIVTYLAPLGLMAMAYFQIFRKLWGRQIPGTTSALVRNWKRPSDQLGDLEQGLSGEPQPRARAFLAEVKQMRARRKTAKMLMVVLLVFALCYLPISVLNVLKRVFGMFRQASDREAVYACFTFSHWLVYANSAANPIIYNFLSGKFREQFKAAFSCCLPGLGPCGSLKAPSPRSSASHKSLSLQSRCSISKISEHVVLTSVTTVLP
T6 sequence (O43614 whole entry): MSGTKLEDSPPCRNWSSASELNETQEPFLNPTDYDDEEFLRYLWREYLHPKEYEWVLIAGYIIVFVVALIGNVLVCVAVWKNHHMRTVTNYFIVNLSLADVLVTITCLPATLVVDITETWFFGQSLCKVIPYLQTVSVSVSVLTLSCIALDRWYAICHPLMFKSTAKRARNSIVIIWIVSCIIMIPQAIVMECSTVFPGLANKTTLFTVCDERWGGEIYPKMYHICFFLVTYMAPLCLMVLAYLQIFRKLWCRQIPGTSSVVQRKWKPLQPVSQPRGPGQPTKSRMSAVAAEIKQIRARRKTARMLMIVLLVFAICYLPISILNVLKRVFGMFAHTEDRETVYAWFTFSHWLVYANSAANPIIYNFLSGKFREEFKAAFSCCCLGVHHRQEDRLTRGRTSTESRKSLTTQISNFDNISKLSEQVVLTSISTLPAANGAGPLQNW

C[C@@H]1CN([C@@H](C)CO)C(=O)c2cccc(NC(=O)Nc3cccc4ccccc34)c2O[C@H]1CN(C)S(=O)(=O)c1ccc2c(c1)OCO2
AC50 (INS1 [1]): 49.4 µM (active)
AC50 [2]: > 195 µM (inactive)
AC50 (INS1 [3]): 29.8 µM (active)

O=C(N/N=C/c1c[nH]c2ccccc12)C1CC1c1ccccc1 (stereo unspecified)
IC50 (Caspase-3): > 99 µM (inactive)
IC50 [4]: > 99 µM (inactive)
IC50 [5]: > 99 µM (inactive)
IC50 [6]: > 99 µM (inactive)

CCC(Sc1nc(O)c2c(n1)CCC2)C(=O)Nc1cccc(OC)c1 (stereo unspecified)
CC50 [7]: > 100 µM (active)

CCSc1nnc(NC(=O)c2ccc3ccccc3n2)s1
EC50 [8]: 2.08 µM (active)
EC50 (Streptococcus): 6.46 µM (active)
IC50 (CHO-K1): > 66.2 µM (inactive)
IC50 [9]: > 49.7 µM (inactive)
IC50 [10]: 2.67 µM (active)
IC50 [11]: 6.86 µM (active)
IC50 (Orexin receptor type 2 [12]): > 88.8 µM (inactive)
IC50 (Orexin receptor type 2 [13]): > 50 µM (inactive)
